US8043826B2, “Device for monitoring inhibition of platelet function response” (Medical Innovations International, Inc., priority 2005, dated 2011)

Tested on: platelets
Experiment: Assaying platelet aspirin response: luciferin/luciferase light emission (extracellular ATP) in arachidonic-acid-treated diluted whole blood drawn before and after taking aspirin
Assay type: cell-based, human
Details: individuals of FIGS. 2A and 2C; blood drawn after aspirin 325 mg; no-aspirin sample very steep
Experimental: Volunteers who had not taken aspirin in the previous 24 hours underwent a finger prick to draw blood. Blood (2 μl) was diluted into 1 ml of buffer (PBS, 0.9% NaCl, 10 mM sodium phosphate, pH 7.0) in a clear test tube. An aliquot (15 μl) of luciferin/luciferase solution (containing 10 mg/ml luciferin and 10 μg/ml luciferase) was added to the diluted blood. The solution was mixed and placed in a Zylux FEMPTOMASTER FB12 photon counter. A baseline reading of the light emission was taken. The test tube was then withdrawn, and 5 μl of 15 mM arachidonic acid was added to the solution and the solution was mixed. The test tube was then reinserted in the photon counter and light emission readings were taken for approximately 2 to 4 minutes.
The volunteer then swallowed or chewed an aspirin (325 mg). A blood sample was taken, and the process was repeated. The results from blood drawn from an individual before and after taking aspirin were compared.

CC(=O)Oc1ccccc1C(=O)O [aspirin]
slope of light emission vs. time after arachidonic acid is added, aspirin sample: almost flat
